Source: ChEMBL document CHEMBL1150988, “-lactam-recognizing enzymes exhibit different structural specificity in acyclic amide and ester substrates: a starting point in -lactamase evolution?” (Bioorg Med Chem Lett, 1994)
Where “and” joins values, the source holds several entries; their conditions need not be identical. Identical values can stand only once.

Tests used:
Streptomyces [1] = test: Kcat against Streptomyces R61 DD-peptidase
Streptomyces [2] = test: Km against Streptomyces R61 DD-peptidase
[3] = Ratio for Kcat to Km against Streptomyces R61 DD-peptidase; set-up: unit not given here
[4] = molecular target: Beta-lactamase (Enterobacter cloacae) (UniProt P05364); test: Kcat against P99 beta-lactamase
[5] = Ratio for Kcat to Km was determined; set-up: unit not given here

Sequence of Beta-lactamase (Enterobacter cloacae) (P05364 21-381 limits assumed): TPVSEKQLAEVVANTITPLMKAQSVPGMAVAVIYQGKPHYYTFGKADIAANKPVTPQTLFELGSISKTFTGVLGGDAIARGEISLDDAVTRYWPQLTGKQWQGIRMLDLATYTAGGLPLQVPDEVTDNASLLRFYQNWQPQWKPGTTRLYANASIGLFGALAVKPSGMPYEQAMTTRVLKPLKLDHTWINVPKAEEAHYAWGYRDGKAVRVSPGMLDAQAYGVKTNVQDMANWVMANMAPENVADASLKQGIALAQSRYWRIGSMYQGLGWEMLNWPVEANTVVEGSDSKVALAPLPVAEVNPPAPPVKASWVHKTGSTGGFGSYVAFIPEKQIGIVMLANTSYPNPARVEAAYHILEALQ

| SMILES | k cat (Streptomyces [1]) | Km (Streptomyces [2]) | Ratio [3] | k cat [4] | Ratio [5] |
| --- | --- | --- | --- | --- | --- |
| C[C@H](NC(=O)Cc1ccccc1)C(=O)N[C@H](C)C(=O)O | 2 s⁻¹ | 7 mM | 286 |  |  |
| C[C@@H](OC(=O)CNC(=O)Cc1ccccc1)C(=O)O | 4.3 s⁻¹ | 11.8 mM | 366 | 27.3 s⁻¹ | 3390 |
| CC(=O)NCCCC[C@H](NC(C)=O)C(=O)NCC(=O)S[C@H](C)C(=O)O | 11.9 s⁻¹ | 2 mM | 5850 | 5.1 s⁻¹ | 763 |
| C[C@@H](SC(=O)CNC(=O)Cc1ccccc1)C(=O)O | 6.1 s⁻¹ | 0.63 mM | 9660 | 22 s⁻¹ | 6670 |
| C[C@H](NC(=O)Cc1ccccc1)C(=O)O[C@H](C)C(=O)O | 24.6 s⁻¹ | 6.8 mM | 3630 | 29 s⁻¹ | 1240 |

Now from value to molecule:

| k cat (Streptomyces [1]) | Km (Streptomyces [2]) | Ratio [3] | k cat [4] | Ratio [5] | SMILES |
| --- | --- | --- | --- | --- | --- |
| 0.019 s⁻¹ | 15 mM | 1.3 |  |  | CC(=O)NCCCC[C@H](NC(C)=O)C(=O)NCC(=O)N[C@H](C)C(=O)O |
| 10.4 s⁻¹ | 9.8 mM | 1060 | 17.8 s⁻¹ | 493 | CC(=O)NCCCC[C@H](NC(C)=O)C(=O)NCC(=O)O[C@H](C)C(=O)O |
| 65.9 s⁻¹ | 50.6 mM | 1300 | 63 s⁻¹ | 2340 | CC(=O)NCCCC[C@H](NC(C)=O)C(=O)N[C@@H](C)C(=O)O[C@H](C)C(=O)O |
| 55 s⁻¹ | 10 mM and 7 mM | 5500 and 7890 |  |  | CC(=O)NCCCC[C@H](NC(C)=O)C(=O)N[C@@H](C)C(=O)N[C@H](C)C(=O)O |
